{"source": "patent US20080153850A1", "about": "“Adamantyl Derivates as P2x7 Receptor Antagonists” (AstraZeneca AB, priority 2004, published 2008)", "data": [{"smiles": "O=C(O)Cc1ccccc1-c1ccc(Cl)c(C(=O)NCC23CC4CC(CC(C4)C2)C3)c1", "note": "[Example 37, 4′-Chloro-3′-[[(tricyclo[3.3.1.1^3,7]dec-1-ylmethyl)amino]carbonyl]-[1,1′-biphenyl]-2-acetic acid]", "values": [{"measurement": "melting point", "value": "200 to 202", "unit": "°C"}]}, {"smiles": "O=C(O)COc1cccc(-c2ccc(Cl)c(C(=O)NCC34CC5CC(CC(C5)C3)C4)c2)c1", "note": "[Example 38, [[4′-Chloro-3′-[[(tricyclo[3.3.1.1^3,7]dec-1-ylmethyl)amino]carbonyl][1,1′-biphenyl]-3-yl]oxy]-acetic acid]", "values": [{"measurement": "melting point", "value": "99 to 101", "unit": "°C"}]}, {"smiles": "C[C@@H](Oc1ccccc1-c1ccc(Cl)c(C(=O)NCC23CC4CC(CC(C4)C2)C3)c1)C(=O)O", "note": "[Example 39, (2R)-2-[[4′-Chloro-3′-[[(tricyclo[3.3.1.1^3,7]dec-1-ylmethyl)amino]carbonyl][1,1′-biphenyl]-2-yl]oxy]-propanoic acid]", "values": [{"measurement": "melting point", "value": "133 to 137", "unit": "°C"}]}, {"smiles": "O=C(O)COc1ccc(-c2ccc(Cl)c(C(=O)NCC34CC5CC(CC(C5)C3)C4)c2)cc1", "note": "[Example 40, [[4′-Chloro-3′-[[(tricyclo[3.3.1.1^3,7]dec-1-ylmethyl)amino]carbonyl][1,1′-biphenyl]-4-yl]oxy]-acetic acid]", "values": [{"measurement": "melting point", "value": "136 to 140", "unit": "°C"}]}, {"smiles": "C[C@H](Oc1cccc(-c2ccc(Cl)c(C(=O)NCC34CC5CC(CC(C5)C3)C4)c2)c1)C(=O)O", "note": "[Example 41, (2S)-2-[[4′-Chloro-3′-[[(tricyclo[3.3.1.1^3,7]dec-1-ylmethyl)amino]carbonyl][1,1′-biphenyl]-3-yl]oxy]-propanoic acid]", "values": [{"measurement": "melting point", "value": "115 to 120", "unit": "°C"}]}, {"smiles": "O=C(NCC12CC3CC(CC(C3)C1)C2)c1cc(-c2ccc(Cl)cc2C(=O)O)ccc1Cl", "note": "[Example 42, 4,4′-Dichloro-3′-[[(tricyclo[3.3.1.1^3,7]dec-1-ylmethyl)amino]carbonyl]-[1,1′-biphenyl]-2-carboxylic acid]", "values": [{"measurement": "melting point", "value": "207 to 210", "unit": "°C"}]}, {"smiles": "C[C@H](Oc1ccc(-c2ccc(Cl)c(C(=O)NCC34CC5CC(CC(C5)C3)C4)c2)cc1)C(=O)O", "note": "[Example 43, (2S)-2-[[4′-Chloro-3′-[[(tricyclo[3.3.1.1^3,7]dec-1-ylmethyl)amino]carbonyl][1,1′-biphenyl]-4-yl]oxy]-propanoic acid]", "values": [{"measurement": "melting point", "value": "145 to 150", "unit": "°C"}]}, {"smiles": "O=C(NCC12CC3CC(CC(C3)C1)C2)c1cc(-c2ccc(Cl)c(C(=O)O)n2)ccc1Cl", "note": "[Example 44, 3-Chloro-6-[4-chloro-3-[[(tricyclo[3.3.1.1^3,7]dec-1-ylmethyl)amino]carbonyl]phenyl]-2-pyridinecarboxylic acid]", "values": [{"measurement": "melting point", "value": "154 to 159", "unit": "°C"}]}, {"smiles": "O=C(O)COc1cccnc1-c1ccc(Cl)c(C(=O)NCC23CC4CC(CC(C4)C2)C3)c1", "note": "[Example 46, [[2-[4-Chloro-3-[[(tricyclo[3.3.1.1^3,7]dec-1-ylmethyl)amino]carbonyl]phenyl]-3-pyridinyl]oxy]-acetic acid]", "values": [{"measurement": "melting point", "value": "133 to 137", "unit": "°C"}]}, {"smiles": "O=C(O)CNc1cccnc1-c1ccc(Cl)c(C(=O)NCC23CC4CC(CC(C4)C2)C3)c1", "note": "[Example 47, N-[2-[4-Chloro-3-[[(tricyclo[3.3.1.1^3,7]dec-1-ylmethyl)amino]carbonyl]phenyl]-3-pyridinyl]-glycine]", "values": [{"measurement": "melting point", "value": "190 to 194", "unit": "°C"}]}, {"smiles": "O=C(NCC12CC3CC(CC(C3)C1)C2)c1cc(-c2cc(F)c(F)cc2C(=O)O)ccc1Cl", "note": "[Example 48, 4′-Chloro-4,5-difluoro-3′-[[(tricyclo[3.3.1.1^3,7]dec-1-ylmethyl)amino]carbonyl]-[1,1′-biphenyl]-2-carboxylic acid]", "values": [{"measurement": "melting point", "value": "121 to 125", "unit": "°C"}]}, {"smiles": "O=C(NCCC12CC3CC(CC(C3)C1)C2)c1cc(-c2ccccc2C(=O)O)ccc1Cl", "note": "[Example 49, 4′-Chloro-3′-[[(2-tricyclo[3.3.1.1^3,7]dec-1-ylethyl)amino]carbonyl]-[1,1′-biphenyl]-2-carboxylic acid]", "values": [{"measurement": "melting point", "value": "114 to 117", "unit": "°C"}]}, {"smiles": "O=C(NCCC12CC3CC(CC(C3)C1)C2)c1cc(-c2cccnc2C(=O)O)ccc1Cl", "note": "[Example 50, 3-[4-Chloro-3-[[(2-tricyclo[3.3.1.1^3,7]dec-1-ylethyl)amino]carbonyl]phenyl]-2-pyridinecarboxylic acid]", "values": [{"measurement": "melting point", "value": "108 to 111", "unit": "°C"}]}, {"smiles": "O=C(NCC12CC3CC(CC(C3)C1)C2)c1cc(-c2ccc(F)cc2C(=O)O)ccc1Cl", "note": "[Example 51, 4′-Chloro-4-fluoro-3′-[[(tricyclo[3.3.1.1^3,7]dec-1-ylmethyl)amino]carbonyl]-[1,1′-biphenyl]-2-carboxylic acid]", "values": [{"measurement": "melting point", "value": "126 to 128", "unit": "°C"}]}, {"smiles": "O=C(NCC12CC3CC(CC(C3)C1)C2)c1cc(-c2ccccc2C(=O)O)ncc1Cl", "note": "[Example 52, 2-[5-Chloro-4-[[(tricyclo[3.3.1.1^3,7]dec-1-ylmethyl)amino]carbonyl]-2-pyridinyl]-benzoic acid]", "values": [{"measurement": "melting point", "value": "134 to 138", "unit": "°C"}]}, {"smiles": "Cc1ccnc(-c2ccc(Cl)c(C(=O)NCC34CC5CC(CC(C5)C3)C4)c2)c1C(=O)O", "note": "[Example 53, 2-[4-Chloro-3-[[(tricyclo[3.3.1.1^3,7]dec-1-ylmethyl)amino]carbonyl]phenyl]-4-methyl-3-pyridinecarboxylic acid]", "values": [{"measurement": "melting point", "value": "177 to 180", "unit": "°C"}]}, {"smiles": "CN(CCO)c1nc(-c2ccc(Cl)c(C(=O)NCC34CC5CC(CC(C5)C3)C4)c2)ccc1C(=O)O", "note": "[Example 54, 6-[4-Chloro-3-[[(tricyclo[3.3.1.1^3,7]dec-1-ylmethyl)amino]carbonyl]phenyl]-2-[(2-hydroxyethyl)methylamino]-3-pyridinecarboxylic acid]", "values": [{"measurement": "melting point", "value": "121 to 124", "unit": "°C"}]}, {"smiles": "Cc1ccc(-c2cccnc2C(=O)O)cc1C(=O)NCC12CC3CC(CC(C3)C1)C2", "note": "[Example 55, 3-[4-Methyl-3-[[(tricyclo[3.3.1.1^3,7]dec-1-ylmethyl)amino]carbonyl]phenyl]-2-pyridinecarboxylic acid]", "values": [{"measurement": "melting point", "value": "181 to 183", "unit": "°C"}]}, {"smiles": "Cc1nn(C)c(C(=O)O)c1-c1ccc(Cl)c(C(=O)NCC23CC4CC(CC(C4)C2)C3)c1", "note": "[Example 56, 4-[4-Chloro-3-[[(tricyclo[3.3.1.1^3,7]dec-1-ylmethyl)amino]carbonyl]phenyl]-1,3-dimethyl-1H-pyrazole-5-carboxylic acid]", "values": [{"measurement": "melting point", "value": 207, "unit": "°C"}]}, {"smiles": "O=C(NCC12CC3CC(CC(C3)C1)C2)c1cc(-c2cccnc2N2CCC(C(=O)O)CC2)ccc1Cl", "note": "[Example 59, 1-[3-[4-Chloro-3-[[(tricyclo[3.3.1.1^3,7]dec-1-ylmethyl)amino]carbonyl]phenyl]-2-pyridinyl]-4-piperidinecarboxylic acid]", "values": [{"measurement": "melting point", "value": "110 to 115", "unit": "°C"}]}, {"smiles": "O=C(NCC12CC3CC(CC(C3)C1)C2)c1cc(-c2cccnc2N2CCC[C@H]2C(=O)O)ccc1Cl", "note": "[Example 60, 1-[3-[4-Chloro-3-[[(tricyclo[3.3.1.1^3,7]dec-1-ylmethyl)amino]carbonyl]phenyl]-2-pyridinyl]-L-proline]", "values": [{"measurement": "melting point", "value": "121 to 125", "unit": "°C"}]}, {"smiles": "O=C(NCC12CC3CC(CC(C3)C1)C2)c1cc(-c2cccnc2N2CCCC(C(=O)O)C2)ccc1Cl", "note": "(centres unmarked) [Example 61, 1-[3-[4-Chloro-3-[[(tricyclo[3.3.1.1^3,7]dec-1-ylmethyl)amino]carbonyl]phenyl]-2-pyridinyl]-3-piperidinecarboxylic acid]", "values": [{"measurement": "melting point", "value": "125 to 130", "unit": "°C"}]}, {"smiles": "O=C(NCC12CC3CC(CC(C3)C1)C2)c1cc(-c2cccnc2N2CC(C(=O)O)C2)ccc1Cl", "note": "[Example 62, 1-[3-[4-Chloro-3-[[(tricyclo[3.3.1.1^3,7]dec-1-ylmethyl)amino]carbonyl]phenyl]-2-pyridinyl]-3-azetidinecarboxylic acid]", "values": [{"measurement": "melting point", "value": "145 to 150", "unit": "°C"}]}, {"smiles": "Cc1ccc(-c2ccc(Cl)c(C(=O)NCC34CC5CC(CC(C5)C3)C4)c2)c(C(=O)O)n1", "note": "[Example 63, 3-[4-Chloro-3-[[(tricyclo[3.3.1.1^3,7]dec-1-ylmethyl)amino]carbonyl]phenyl]-6-methyl-2-pyridinecarboxylic acid]", "values": [{"measurement": "melting point", "value": "125 to 130", "unit": "°C"}]}, {"smiles": "Cc1cnc(C(=O)O)c(-c2ccc(Cl)c(C(=O)NCC34CC5CC(CC(C5)C3)C4)c2)c1", "note": "[Example 64, 3-[4-Chloro-3-[[(tricyclo[3.3.1.1^3,7]dec-1-ylmethyl)amino]carbonyl]phenyl]-5-methyl-2-pyridinecarboxylic acid]", "values": [{"measurement": "melting point", "value": "125 to 130", "unit": "°C"}]}, {"smiles": "O=C(NCC12CC3CC(CC(C3)C1)C2)c1cc(-c2cccnc2N2CCC(O)(C(=O)O)CC2)ccc1Cl", "note": "[Example 65, 1-[3-[4-Chloro-3-[[(tricyclo[3.3.1.1^3,7]dec-1-ylmethyl)amino]carbonyl]phenyl]-2-pyridinyl]-4-hydroxy-4-piperidinecarboxylic acid]", "values": [{"measurement": "melting point", "value": "145 to 150", "unit": "°C"}]}, {"smiles": "O=C(NCC12CC3CC(CC(C3)C1)C2)c1cc(-c2cc(F)cnc2N2CCC(C(=O)O)CC2)ccc1Cl", "note": "[Example 66, 1-[3-[4-Chloro-3-[[(tricyclo[3.3.1.1^3,7]dec-1-ylmethyl)amino]carbonyl]phenyl]-5-fluoro-2-pyridinyl]-4-piperidinecarboxylic acid]", "values": [{"measurement": "melting point", "value": "130 to 135", "unit": "°C"}]}, {"smiles": "Cc1ccc(-c2ccccc2C(=O)O)cc1C(=O)NCC12CC3CC(CC(C3)C1)C2", "note": "[Example 67, 4′-Methyl-3′-[[(tricyclo[3.3.1.1^3,7]dec-1-ylmethyl)amino]carbonyl]-[1,1′-biphenyl]-2-carboxylic acid]", "values": [{"measurement": "melting point", "value": "85 to 92", "unit": "°C"}]}, {"smiles": "Cc1ccc(-c2cccnc2N2CCC(C(=O)O)CC2)cc1C(=O)NCC12CC3CC(CC(C3)C1)C2", "note": "[Example 68, 1-[3-[4-Methyl-3-[[(tricyclo[3.3.1.1^3,7]dec-1-ylmethyl)amino]carbonyl]phenyl]-2-pyridinyl]-4-piperidinecarboxylic acid]", "values": [{"measurement": "melting point", "value": 60, "unit": "°C"}]}, {"smiles": "Cc1ccc(-c2cccc(C(=O)O)n2)cc1C(=O)NCC12CC3CC(CC(C3)C1)C2", "note": "[Example 69, 6-[4-Methyl-3-[[(tricyclo[3.3.1.1^3,7]dec-1-ylmethyl)amino]carbonyl]phenyl]-2-pyridinecarboxylic acid]", "values": [{"measurement": "melting point", "value": 227, "unit": "°C"}]}, {"smiles": "O=C(NCC12CC3CC(CC(C3)C1)C2)c1cc(-c2ccncc2C(=O)O)ccc1Cl", "note": "[Example 70, 4-[4-Chloro-3-[[(tricyclo[3.3.1.1^3,7]dec-1-ylmethyl)amino]carbonyl]phenyl]-3-pyridinecarboxylic acid]", "values": [{"measurement": "melting point", "value": "104 to 107", "unit": "°C"}]}, {"smiles": "Cc1ccc(-c2ccc(Cl)c(C(=O)NCC34CC5CC(CC(C5)C3)C4)c2)nc1C(=O)O", "note": "[Example 71, 6-[4-Chloro-3-[[(tricyclo[3.3.1.1^3,7]dec-1-ylmethyl)amino]carbonyl]phenyl]-3-methyl-2-pyridinecarboxylic acid]", "values": [{"measurement": "melting point", "value": "180 to 185", "unit": "°C"}]}]}
